Assay results taken from PMC5557372 (ChemMedChem, 2017).
In brackets after ≈: the same amount, converted by molar mass. Several values for one entry are separate records, joined by “and”; a condition that tells them apart may be missing. Equal values may be shown once. Read-outs that look alike come from different tables or passages of the source.

Key:
[1] = biological target: Complex II (CII) (Rattus norvegicus, UniProt P21913+Q641Z9+Q6PCT8); experiment: Complex II inhibition assay; format: biochemical; settings: for CII inhibition activity (in words): rat heart mitochondria; for LLE: Ligand-Lipophilicity Efficiency (LLE = pIC50-ClogP)
[2] = tested on: PC3 prostate cancer cells under hypoxia; experiment: Hypoxia cytotoxicity in microfluidic culture
[3] = tested on: bovine CII; settings: read-out: bovine CII IC50; cited from earlier work
[4] = tested on: 22Rv1 cells; experiment: Seahorse XF metabolic parameters; format: cell-based, human; settings: 22Rv1, 48 hour incubation
[5] = tested on: DU-145 prostate cancer cells; experiment: MTS cytotoxicity assay, DU-145; settings: Homo sapiens, DU-145, 48 h, read-out: DU-145 IC50
[6] = tested on: PC3 prostate cancer cells; experiment: MTS cytotoxicity assay, PC3; settings: Homo sapiens, 48 h, read-out: PC3 IC50
[7] = tested on: HEK293 cells; experiment: MTS cytotoxicity assay, HEK293; settings: for IC50: Homo sapiens, HEK293, 48 h, read-out: HEK293 IC50
[8] = biological target: Complex I (NADH ubiquinone-oxidoreductase) (Mus musculus, UniProt P03888+Q91WD5+Q9DC70); experiment: Complex I inhibition assay; format: biochemical; settings: for Selectivity Ratio (CII:CI): Complex I IC50 / Complex II IC50
[9] = tested on: 22Rv1 prostate cancer cells; experiment: MTS cytotoxicity assay, 22Rv1; settings: 22Rv1, 48 hours; plateau beyond
[10] = tested on: CII; settings: read-out: CII IC50, cited from earlier work
[11] = CII IC50, rat heart mitochondria, mean of n = 4 ± S.D.

Sequence of Complex II (CII) (P21913 31-282): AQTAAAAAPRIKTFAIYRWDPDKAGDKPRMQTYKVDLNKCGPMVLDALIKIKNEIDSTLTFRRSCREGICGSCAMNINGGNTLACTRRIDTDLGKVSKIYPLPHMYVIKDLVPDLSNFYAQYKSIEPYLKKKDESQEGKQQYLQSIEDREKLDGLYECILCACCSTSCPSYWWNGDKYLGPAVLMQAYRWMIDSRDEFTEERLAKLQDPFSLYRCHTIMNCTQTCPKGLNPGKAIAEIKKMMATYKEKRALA
Sequence of Complex II (CII) (Q641Z9 30-169 limits assumed): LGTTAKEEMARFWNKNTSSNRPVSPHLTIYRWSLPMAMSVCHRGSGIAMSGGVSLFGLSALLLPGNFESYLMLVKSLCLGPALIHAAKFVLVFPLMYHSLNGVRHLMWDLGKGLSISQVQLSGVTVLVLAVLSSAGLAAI
Sequence of Complex II (CII) (Q6PCT8 57-159): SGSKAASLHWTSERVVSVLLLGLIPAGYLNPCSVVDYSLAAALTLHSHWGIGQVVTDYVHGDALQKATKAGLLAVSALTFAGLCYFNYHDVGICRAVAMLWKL
Sequence of Complex II (CII) (Q920L2 35-656 partner): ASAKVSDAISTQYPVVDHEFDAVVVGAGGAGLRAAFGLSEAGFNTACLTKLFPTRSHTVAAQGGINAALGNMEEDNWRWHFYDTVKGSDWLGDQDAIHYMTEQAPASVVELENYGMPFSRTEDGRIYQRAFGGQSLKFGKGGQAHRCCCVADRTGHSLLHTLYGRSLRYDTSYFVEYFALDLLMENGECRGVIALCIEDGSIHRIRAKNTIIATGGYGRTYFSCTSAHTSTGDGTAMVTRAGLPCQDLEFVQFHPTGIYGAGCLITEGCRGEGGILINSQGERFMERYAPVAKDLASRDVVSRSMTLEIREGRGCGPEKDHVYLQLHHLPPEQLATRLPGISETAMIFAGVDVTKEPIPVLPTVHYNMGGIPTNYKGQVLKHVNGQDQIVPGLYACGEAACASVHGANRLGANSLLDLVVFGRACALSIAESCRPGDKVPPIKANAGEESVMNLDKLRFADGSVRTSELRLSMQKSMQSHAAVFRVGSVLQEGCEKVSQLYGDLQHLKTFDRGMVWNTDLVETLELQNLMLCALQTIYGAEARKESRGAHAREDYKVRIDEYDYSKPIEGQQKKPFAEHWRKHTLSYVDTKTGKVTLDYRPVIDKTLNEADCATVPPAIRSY

With `CCCCCC(O)c1c(O)nc(OC)c(OC)c1O` (racemic) [compound 18, (rac)-3-(1-hydroxyhexyl)-5,6-dimethoxypyridine-2,4-diol] the “CII inhibition activity (in words)” value [1] was “no CII inhibition activity”, the inhibition at 0.1 µM ([1]; read-out: inhibition of CII at 100 nM concentration) was 0% and the “cytotoxic effect under hypoxia (in words)” value ([2]; up to 10 μM) was “no cytotoxic effect”.

With `CCCCCC(O)c1cnc(OC)c(OC)c1O` (racemic) [compound 19, (rac)-5-(1-hydroxyhexyl)-2,3-dimethoxypyridin-4-ol] the “CII inhibition activity (in words)” value [1] was “inactive”.

In the case of `COc1nc(O)c(C(=O)c2ccco2)c(O)c1OC` [16a, (2,4-dihydroxy-5,6-dimethoxypyridin-3-yl)(furan-2-yl)methanone], the “CII inhibition activity (in words)” value [1] is reported as “abrogates CII inhibition activity”.

In the case of `CCCCC(=O)c1c(O)nc(OC)c(OC)c1O` [16b, 1-(2,4-dihydroxy-5,6-dimethoxypyridin-3-yl)pentan-1-one], the IC50 [1, 11] is given as 345 nM and 346 nM, the LLE [1] is given as 5.37 and the IC50 [3] is given as 96 nM.

In the case of `CCCCCC(=O)c1c(O)nc(OC)c(OC)c1O` [16c, 1-(2,4-dihydroxy-5,6-dimethoxypyridin-3-yl)hexan-1-one], the IC50 ([1]; CII IC50 expressed in μg/mL, conversion of the nM IC50) is reported as 64 nM, the LLE [1] is reported as 5.62 and the oxygen consumption rate ([4]; 1-100 μM) is reported as “substantially reduced in a dose-dependent manner”. The ATP production ([4]; vs no treatment control) was “inhibition of ATP production”, the basal respiration ([4]; vs no treatment control) was “reducing basal respiration” and the maximal respiration ([4]; vs no treatment control) was “reduction of maximal respiration”. The cell death ([2]; 1 μM) was 12%, the IC50 [5] was 13 ± 1.6 µg/mL (≈ 48.3 µM) and the IC50 [6] was 55 ± 9.4 µg/mL (≈ 204 µM). The IC50 [7] was 71 ± 5.2 µg/mL (≈ 264 µM), the “selectivity for DU-145 and 22Rv1 prostate cancer cells over HEK293” value ([7]; ratio of IC50 values) was roughly 7 fold and the IC50 [8] was greater than 10000 nM. For the same compound, the “Selectivity Ratio (CII:CI)” value [8] was greater than 156.

`COc1nc(O)c(C(=O)CCCCOCc2ccccc2)c(O)c1OC` [16d, 5-(benzyloxy)-1-(2,4-dihydroxy-5,6-dimethoxypyridin-3-yl)pentan-1-one] gave an IC50 [1, 11] of 281 ± 88.7 nM.

For `COc1nc(O)c(C(=O)CCCCO)c(O)c1OC` [16e, 1-(2,4-dihydroxy-5,6-dimethoxypyridin-3-yl)-5-hydroxypentan-1-one], the IC50 [1, 11] was 3730 ± 1020 nM and the “fold greater CII activity than diazoxide” value ([1]; vs literature IC50 of diazoxide) was 10 fold.

For `CCCCCCC(=O)c1c(O)nc(OC)c(OC)c1O` [16f, 1-(2,4-dihydroxy-5,6-dimethoxypyridin-3-yl)heptan-1-one], the IC50 [1, 11] is listed as 283 nM, the LLE [1] is listed as 4.57 and the IC50 [3] is listed as 20 nM.

`CCCCCCCC(=O)c1c(O)nc(OC)c(OC)c1O` [16g, 1-(2,4-dihydroxy-5,6-dimethoxypyridin-3-yl)octan-1-one] gave an LLE [1] of 4.89.

In the case of `CCCCCCCCC(=O)c1c(O)nc(OC)c(OC)c1O` [16h, 1-(2,4-dihydroxy-5,6-dimethoxypyridin-3-yl)nonan-1-one], the LLE [1] is reported as 4.93.

With `CCCCCCCCCCC(=O)c1c(O)nc(OC)c(OC)c1O` [16j, 1-(2,4-dihydroxy-5,6-dimethoxypyridin-3-yl)undecan-1-one] the LLE [1] was 4.32.

With `CCCCCCCCCCCCC(=O)c1c(O)nc(OC)c(OC)c1O` [16k, 1-(2,4-dihydroxy-5,6-dimethoxypyridin-3-yl)tridecan-1-one] the LLE [1] was 3.76, the IC50 ([1]; read-out: CII IC50 expressed in μg/mL, conversion of the nM IC50) was 3.29 nM and the “concentration at which maximal cytotoxicity is reached” value [9] was 10000 ng/mL. The IC50 [7] was 28 ± 2 µg/mL (≈ 76.2 µM), the “selectivity for 22Rv1 over HEK293 cell line” value ([7]; ratio of IC50 values) was 14 fold and the “Selectivity Ratio (CII:CI)” value [8] was greater than 3030.

For `COc1[nH]c(=O)c(C(=O)[C@@H](C)C[C@H](C)[C@@H](Cl)CCl)c(O)c1OC` [Atpenin A5, atpenin A5, reference compound], the IC50 [1, 11] is listed as 3.3 ± 2 nM and the IC50 [10] is listed as 3.6 to 10 nM.

For `O=C(O)CC(=O)O` [Malonate], the IC50 [10] is given as 40000 nM.

In the case of `O=C(CC(=O)C(F)(F)F)c1cccs1` [Thenoyltrifluoroacetone], the IC50 ([10]; control compound in CII assay kits) is given as 30000 nM.

With `CCCCCC(=O)c1cnc(OC)c(OC)c1O` [compound 20, 1-(4-hydroxy-5,6-dimethoxypyridin-3-yl)hexan-1-one] the “CII inhibition activity at 100 nM concentration (in words)” value [1] was “no activity”.

In the case of `CCCCCC(OC)c1cnc(OC)c(OC)c1O` (stereo not shown) [compound 24, 2,3-dimethoxy-5-(1-methoxyhexyl)pyridin-4-ol], the “CII inhibition activity at 100 nM concentration (in words)” value [1] is reported as “no activity”.

In the case of `Cc1c(C)c2c(c(C)c1OC(=O)CCC(=O)O)CC[C@@](C)(CCC[C@H](C)CCC[C@H](C)CCCC(C)C)O2` [α-Tocopheryl succinate, α -Tocopheryl succinate], the IC50 [10] is listed as 42000 nM.
